From US6527981B1, “Azole/amine oxide preservatives” (Lonza Inc., priority 1999, dated 2003)
Values after ≈ are worked out from the molar mass of the structure shown. Where two headings read alike, the source gives them in different places.

Columns and labels:
[1] = system: C. globosum (soft rot decay fungi); experiment: agar dilution plate method, wood rot fungi (MIC, IC50, percent retardation); type: cell-based; details: for MIC: Chaetomium globosum
[2] = system: T. versicolor (white rot fungi); experiment: as above; type: cell-based; details: for MIC: Trametes versicolor
[3] = system: G. trabeum (brown rot fungi); experiment: as above; type: cell-based; details: for MIC: Gloeophyllum trabeum
[4] = system: P. placenta (brown rot fungi); experiment: as above; type: cell-based
[5] = 25° C., cited from earlier work; for Solubility in Water^b: Material Safety Data Sheet; for Solubility in water^a: The Pesticide Manual, 11th Edition
[6] = ppm of amine oxide or didecyldimethyl ammonium chloride, Table2D curve fitting
[7] = amine oxide alone, 100% growth retardation
[8] = azole alone, read-out: C. globosum MIC
[9] = azole alone, Table2D curve fitting
[10] = azole alone, read-out: T. versicolor MIC
[11] = azole alone, read-out: G. trabeum MIC
[12] = azole alone, read-out: P. placenta MIC
[13] = amine oxide alone, 100% growth retardation, read-out: MIC (ppm of amine oxides) C. globosum
[14] = amine oxide alone, 100% growth retardation, read-out: MIC (ppm of amine oxides) T. versicolor
[15] = amine oxide alone, 100% growth retardation, read-out: MIC (ppm of amine oxides) G. trabeum
[16] = amine oxide alone, 100% growth retardation, read-out: MIC (ppm of amine oxides) P. placenta

Structure (SMILES): CCCCCCCCCC[N+](C)(C)CCCCCCCCCC.[Cl-] [Bardac ® 2280, didecyldimethyl ammonium chloride]
- MIC ([1]; read-out: MIC C. globosum): > 1000 µg/mL
- IC50 C. globosum [1, 6]: 28 ppm
- MIC ([2]; Table 8, ppm of amine oxide or didecyldimethyl ammonium chloride, read-out: MIC T. versicolor): > 1000 µg/mL
- IC50 T. versicolor [2, 6]: 28 ppm
- MIC ([3]; Table 8, ppm of amine oxide or didecyldimethyl ammonium chloride, read-out: MIC G. trabeum): > 1000 µg/mL
- IC50 G. trabeum [3, 6]: 8 ppm
- MIC ([4]; Table 8, ppm of amine oxide or didecyldimethyl ammonium chloride, read-out: MIC P. placenta): 1000 µg/mL
- IC50 P. placenta [4, 6]: <5 ppm

Structure (SMILES): CCCCCCCCCCCCCCCCCCCCCC[N+](C)(C)[O-] [Behenyl DMAO]
- MIC (ppm of amine oxides) C. globosum [1, 7]: >1000 ppm
- Qa, concentration of amine oxide alone required to yield 100% retardation, T. versicolor ([2]; amine oxide alone): 1000 ppm
- MIC (ppm of amine oxides) T. versicolor [2, 7]: >1000 ppm
- Qa, concentration of amine oxide alone required to yield 100% retardation, G. trabeum ([3]; amine oxide alone): 1000 ppm
- MIC (ppm of amine oxides) G. trabeum [3, 7]: >1000 ppm
- Qa, concentration of amine oxide alone required to yield 100% retardation, P. placenta ([4]; amine oxide alone): 1000 ppm
- MIC (ppm of amine oxides) P. placenta [4, 7]: >1000 ppm

Structure (SMILES): CC(C1CC1)C(O)(Cn1cncn1)c1ccc(Cl)cc1 (centres unmarked) [Cyproconazole, cyproconazole]
- MIC [1, 8]: 25 µg/mL (≈ 85.7 µM)
- C. globosum IC50 [1, 9]: 2.3 ppm
- MIC [2, 10]: 2.5 µg/mL (≈ 8.57 µM)
- T. versicolor IC50 [2, 9]: 0.2 ppm
- MIC [3, 11]: 2.5 µg/mL (≈ 8.57 µM)
- G. trabeum IC50 [3, 9]: 0.3 ppm
- P. placenta IC50 [4, 9]: 0.7 ppm
- MIC [4, 12]: 2.5 µg/mL (≈ 8.57 µM)

Structure (SMILES): CCCCCCCCCC[N+](C)(C)[O-] [Decyl-DMAO, decyl dimethylamine oxide]
- MIC [1, 13]: > 1000 µg/mL
- MIC [2, 14]: 750 µg/mL (≈ 3720 µM)
- Qa, concentration of amine oxide alone required to yield 100% retardation, T. versicolor ([2]; amine oxide alone): 750 ppm
- MIC [3, 15]: 250 µg/mL (≈ 1240 µM)
- Qa, concentration of amine oxide alone required to yield 100% retardation, G. trabeum ([3]; amine oxide alone): 250 ppm
- Qa, concentration of amine oxide alone required to yield 100% retardation, P. placenta ([4]; amine oxide alone): 500 ppm
- MIC [4, 16]: 500 µg/mL (≈ 2480 µM)

Structure (SMILES): CCCCCCCCCCCC[N+](C)([O-])Cc1ccccc1 (centres unmarked) [Dodecyl-BMAO]
- MIC (ppm of amine oxides) C. globosum [1, 7]: >1000 ppm
- MIC (ppm of amine oxides) T. versicolor [2, 7]: >1000 ppm
- MIC (ppm of amine oxides) G. trabeum [3, 7]: 1000 ppm
- MIC (ppm of amine oxides) P. placenta [4, 7]: >1000 ppm

Structure (SMILES): CCCCCCCCCCCC[N+](C)(C)[O-] [Dodecyl-DMAO, dodecyldimethylamine oxide]
- MIC ([1]; read-out: MIC (ppm of amine oxides) C. globosum): > 1000 µg/mL
- MIC [2, 14]: 250 µg/mL (≈ 1090 µM)
- Qa, concentration of amine oxide alone required to yield 100% retardation, T. versicolor ([2]; amine oxide alone): 250 ppm
- MIC [3, 15]: 250 µg/mL (≈ 1090 µM)
- Qa, concentration of amine oxide alone required to yield 100% retardation, G. trabeum ([3]; amine oxide alone): 250 ppm
- Qa, concentration of amine oxide alone required to yield 100% retardation, P. placenta ([4]; amine oxide alone): 250 ppm
- MIC [4, 16]: 250 µg/mL (≈ 1090 µM)

Structure (SMILES): N#CC(CCc1ccc(Cl)cc1)(Cn1cncn1)c1ccccc1 (centres unmarked) [Fenbuconazole, fenbuconazole]
- MIC [1, 8]: 50 µg/mL (≈ 148 µM)
- C. globosum IC50 [1, 9]: 10.7 ppm
- MIC [2, 10]: 25 µg/mL (≈ 74.2 µM)
- T. versicolor IC50 [2, 9]: 1.1 ppm
- MIC [3, 11]: 50 µg/mL (≈ 148 µM)
- G. trabeum IC50 [3, 9]: 0.3 ppm
- P. placenta IC50 [4, 9]: 3.9 ppm
- MIC [4, 12]: 25 µg/mL (≈ 74.2 µM)
- Solubility in Water^b [5]: 4 ppm at 25 °C
- Solubility in water^a [5]: 0.2 ppm/25 °C

Structure (SMILES): CCCCCCCCCCCCCCCC[N+](C)(C)[O-] [Hexadecyl-DMAO, hexadecyl dimethylamine oxide]
- MIC [1, 13]: > 1000 µg/mL
- MIC [2, 14]: > 1000 µg/mL
- Qa, concentration of amine oxide alone required to yield 100% retardation, T. versicolor ([2]; amine oxide alone): 1000 ppm
- MIC [3, 15]: > 1000 µg/mL
- Qa, concentration of amine oxide alone required to yield 100% retardation, G. trabeum ([3]; amine oxide alone): 1000 ppm
- Qa, concentration of amine oxide alone required to yield 100% retardation, P. placenta ([4]; amine oxide alone): 1000 ppm
- MIC [4, 16]: > 1000 µg/mL

Structure (SMILES): CCCCCCCCCCCC[N+]1([O-])CCOCC1 [Lauryl morpholine N-oxide, lauryl morpholine N-oxide]
- MIC (ppm of amine oxides) C. globosum [1, 7]: >1000 ppm
- Qa, concentration of amine oxide alone required to yield 100% retardation, T. versicolor ([2]; amine oxide alone): 750 ppm
- MIC (ppm of amine oxides) T. versicolor [2, 7]: 750 ppm
- Qa, concentration of amine oxide alone required to yield 100% retardation, G. trabeum ([3]; amine oxide alone): 1000 ppm
- MIC (ppm of amine oxides) G. trabeum [3, 7]: 1000 ppm
- Qa, concentration of amine oxide alone required to yield 100% retardation, P. placenta ([4]; amine oxide alone): 500 ppm
- MIC (ppm of amine oxides) P. placenta [4, 7]: 500 ppm

Structure (SMILES): CCCCC(C#N)(Cn1cncn1)c1ccc(Cl)cc1 (centres unmarked) [Myclobutanil, myclobutanil]
- MIC [1, 8]: > 50 µg/mL
- MIC [2, 10]: 50 µg/mL (≈ 173 µM)
- T. versicolor IC50 [2, 9]: 6 ppm
- MIC [3, 11]: > 50 µg/mL
- G. trabeum IC50 [3, 9]: 4.3 ppm
- P. placenta IC50 [4, 9]: 13 ppm
- MIC [4, 12]: 50 µg/mL (≈ 173 µM)
- Solubility in Water^b [5]: 142 ppm at 25 °C
- Solubility in water^a [5]: 142 ppm/25 °C
